Laboratory results taken from publication PMC2859624 (Progress in neuro-psychopharmacology & biological psychiatry, 2010).
Like-named read-outs stand apart in the source and are kept apart here.

Experiments:
α5β3γ2 GABAA receptors [1] = target: T1, α5β3γ2 GABAA receptors (Rattus norvegicus, UniProt P18508+P19969); settings: 100 nM, EC3 GABA, mean ± SEM; ref Rivas et al., 2009; cited from earlier work
male Wistar rats [2] = experiment: Elevated plus maze; assay type: in vivo, rat; settings: for effect on percentage of time on open arms: post hoc p 0.032
[3] = target: human GABAA receptor containing α5 subunit (BZ site) (Homo sapiens, UniProt P18507+P31644); experiment: Competition binding assay with [3H]flunitrazepam
male Wistar rats [4] = experiment: Spontaneous locomotor activity; settings: for dose inducing a hypolocomotor effect in the SLA: i.p.; for effect on total distance travelled during 45 min: 20 min before test, vs solvent; for effect on total distance (locomotion), 30 min: Dunnett's test
[5] = target: human GABAA receptor containing α3 subunit (BZ site) (Homo sapiens, UniProt P18507+P34903); experiment: Competition binding assay with [3H]flunitrazepam; settings: read-out: Ki α3, transfected HEK 293T, duplicate
α2β3γ2 GABAA receptors [6] = target: T2, α2β3γ2 GABAA receptors (Rattus norvegicus, UniProt P18508+P23576); settings: 100 nM, EC3 GABA, mean ± SEM; ref Rivas et al., 2009; cited from earlier work
α1β3γ2 GABAA receptors [7] = target: T3, α1β3γ2 GABAA receptors (Rattus norvegicus, UniProt P18508+P62813); settings: 100 nM, EC3 GABA, mean ± SEM; ref Rivas et al., 2009; cited from earlier work
α3β3γ2 GABAA receptors [8] = target: T4, α3β3γ2 GABAA receptors (Rattus norvegicus, UniProt P18508+P20236); settings: 100 nM, EC3 GABA, mean ± SEM; ref Rivas et al., 2009; cited from earlier work
α3β3γ2 GABAA receptors [9] = target: T4, α3β3γ2 GABAA receptors; assay type: cell-based; settings: for remaining activity at 0.1 µM: read-out: % of control current, α3β3γ2, 100 nM, EC3 GABA, mean ± SEM
α2β3γ2 GABAA receptors [10] = target: T2, α2β3γ2 GABAA receptors; assay type: cell-based; settings: for % of control current, α2β3γ2: 100 nM, EC3 GABA, mean ± SEM, 0.1 µM
male Wistar rats [11] = settings: ref Savić et al., 2008b, cited from earlier work
male Wistar rats [12] = experiment: Morris water maze; assay type: in vivo, rat; settings: for platform zone entries during the probe trial: after five-day treatment at 30 mg/kg i.p.; for overall influence on water maze learning parameters (acquisition): 5 days
[13] = target: human GABAA receptor containing α6 subunit (BZ site) (Homo sapiens, UniProt P18507+Q16445); experiment: Competition binding assay with [3H]flunitrazepam; settings: read-out: Ki α6, transfected HEK 293T, duplicate
α5β3γ2 GABAA receptors [14] = target: T1, α5β3γ2 GABAA receptors; assay type: cell-based; settings: for % of control current, α5β3γ2: 100 nM, EC3 GABA, mean ± SEM
male Wistar rats [15] = settings: 30 mg/kg; ref Savić et al., 2008b; cited from earlier work
α1β3γ2 GABAA receptors [16] = target: T3, α1β3γ2 GABAA receptors; assay type: cell-based
[17] = target: human GABAA receptor containing α4 subunit (BZ site); settings: read-out: Ki α4; second independent set of experiments
[18] = read-out: % of control current, α1β3γ2
[19] = zolpidem 0.5 mg/kg during acquisition, ±SEM
[20] = zolpidem 1.0 mg/kg during acquisition, ±SEM
[21] = zolpidem 2.0 mg/kg during acquisition, ±SEM
[22] = zolpidem 2.0 mg/kg during acquisition, ±SEM, P<0.05 vs ZOL 0.5

C#Cc1ccc2c(c1)C(c1ccccc1F)=NCc1c(C(=O)OCC)ncn1-2 [JY-XHe-053, 8-ethynyl-6-(2-fluorophenyl)-4H-2,5,10b-triaza-benzo[e]azulene-3-carboxylic acid ethyl ester]
% of control current, α5β3γ2 (α5β3γ2 GABAA receptors [1]): 220% | general activity and anxiety-related parameters (male Wistar rats [2]; 2.5-40 mg/kg i.p.): devoid of significant behavioral activity | binding selectivity for GABAA receptors containing the α5 subunit ([3]; from Ki values): approximately 18 fold | effect on central zone activity (male Wistar rats [4]; 2.5-40 mg/kg i.p., 30 min): not discernible | effect on peripheral zone distance (male Wistar rats [4]; 2.5-40 mg/kg i.p., 30 min, vs control): three higher doses of JYXHe-053 were significantly different from control | dose inducing a hypolocomotor effect in the SLA (male Wistar rats [4]): ≥ 10 mg/kg | Ki [5]: 34.9 nM | % of control current, α2β3γ2 (α2β3γ2 GABAA receptors [6]): 307 ± 14% | % of control current, α1β3γ2 (α1β3γ2 GABAA receptors [7]): 169% | % of control current, α3β3γ2 (α3β3γ2 GABAA receptors [8]): 345 ± 26%

C#Cc1ccc2c(c1)C(c1ccccc1F)=NC(C)c1c(C(=O)OCC)ncn1-2 (centres unmarked) [SH-053-S-CH3-2'F, 8-ethynyl-6-(2-fluorophenyl)-4-methyl-4H-2,5,10b-triaza-benzo[e]azulene-3-carboxylic acid ethyl ester]
remaining activity at 0.1 µM (α3β3γ2 GABAA receptors [9]): 138 ± 5% | % of control current, α2β3γ2 (α2β3γ2 GABAA receptors [10]): 169 ± 5% | effect on locomotor activity (male Wistar rats [11]; 30 mg/kg): significant decrease of locomotor activity | dose inducing a hypolocomotor effect in the SLA (male Wistar rats [11]): 30 mg/kg | platform zone entries during the probe trial (male Wistar rats [12]): lack of incapacitating consequences | Ki [13]: > 5 µM | % of control current, α5β3γ2 (α5β3γ2 GABAA receptors [14]; 0.1 µM): 218 ± 4% | effect on percentage of open arm entries (male Wistar rats [15]): significant effect | effect on percentage of time on open arms (male Wistar rats [15]): significant effect | effects on general activity-related parameters (male Wistar rats [15]): without concomitant effects | % of control current, α1β3γ2 (α1β3γ2 GABAA receptors [16]; 100 nM, EC3 GABA, mean ± SEM): non-significant changes relative to control current | remaining activity at 1 µM (α1β3γ2 GABAA receptors [16]; [18]): 164 ± 6%

CN1C(=O)CN=C(c2ccccc2)c2cc(Cl)ccc21 [diazepam]
remaining activity at 0.1 µM (α3β3γ2 GABAA receptors [9]): 461 ± 34% | remaining activity at 0.1 µM (α2β3γ2 GABAA receptors [10]; read-out: % of control current, α2β3γ2, 100 nM, EC3 GABA, mean ± SEM): 400 ± 22% | effect on percentage of time on open arms (male Wistar rats [2]; 2.0 mg/kg i.p.): effective treatments | effect on total distance travelled during 45 min (male Wistar rats [4]; 1.25 mg/kg i.p.): activity-depressing effect of all three treatments was significant | effect on distance travelled in 5-min bins (male Wistar rats [4]; 2 mg/kg i.p.): induced overt sedation during the first 10 min of recording | effect on total distance (locomotion), 30 min (male Wistar rats [4]; 2 mg/kg i.p.): significantly depressed locomotion | remaining activity at 0.1 µM (α5β3γ2 GABAA receptors [14]; read-out: % of control current, α5β3γ2, 100 nM, EC3 GABA, mean ± SEM): 322 ± 7% | remaining activity at 0.1 µM (α1β3γ2 GABAA receptors [16]; [18]): 246 ± 16%

C#Cc1ccc2c(c1)C(c1ccccc1F)=NC(C)c1c(C(=O)OCC)ncn1-2 (centres unmarked) [SH-053-R-CH3-2'F, 8-ethynyl-6-(2-fluorophenyl)-4-methyl-4H-2,5,10b-triaza-benzo[e]azulene-3-carboxylic acid ethyl ester]
% of control current, α3β3γ2 (α3β3γ2 GABAA receptors [9]; 100 nM, EC3 GABA, mean ± SEM, 0.1 µM): 125 ± 8% | % of control current, α2β3γ2 (α2β3γ2 GABAA receptors [10]): 124 ± 9% | general activity- or anxiety-related parameters (male Wistar rats [2]; doses up to 30 mg/kg i.p.): completely devoid of changes | effect on total distance (locomotion), 30 min (male Wistar rats [4]; 30 mg/kg i.p.): significantly depressed locomotion | effect on distance travelled in 5-min bins (male Wistar rats [4]; 10, 20 and 30 mg/kg i.p., 6 intervals): did not significantly decrease locomotion | effect on central and peripheral zone locomotion (male Wistar rats [4]; 20 and 30 mg/kg i.p.): decreased central, but not peripheral locomotion | platform zone entries during the probe trial (male Wistar rats [12]): lack of incapacitating consequences | % of control current, α5β3γ2 (α5β3γ2 GABAA receptors [14]; 0.1 µM): 183 ± 7% | remaining activity at 0.1 µM (α1β3γ2 GABAA receptors [16]; [18]): 111 ± 2%

Cc1ccc(-c2nc3ccc(C)cn3c2CC(=O)N(C)C)cc1 [zolpidem]
Ki ([3]; read-out: Ki α5, [3H]flunitrazepam, transfected HEK 293T, duplicate): > 10 µM | overall influence on water maze learning parameters (acquisition) (male Wistar rats [12]; 0.5 mg/kg i.p. daily, vs control): different related to control | percent of distance travelled in the NE quadrant that was in the target region (male Wistar rats [12]; 2 mg/kg i.p., day 5 of acquisition, chance 40%): 40.5% | overall influence on water maze learning parameters (acquisition) (male Wistar rats [12]; 1 and 2 mg/kg i.p. daily, vs 0.5 mg/kg): behaviorally impaired related to 0.5 mg/kg zolpidem | Peripheral ring distance, probe trial (male Wistar rats [12]; [19]): 4.16±0.61 m | Peripheral ring time, probe trial (male Wistar rats [12]; [19]): 33.48 ± 3.68 s | Platform distance, probe trial (male Wistar rats [12]; [19]): 0.097±0.031 m | Platform number of entries, probe trial (male Wistar rats [12]; [19]): 1.25±0.41 | Platform quadrant (NE) distance, probe trial (male Wistar rats [12]; [19]): 2.41±0.29 m | Platform quadrant (NE) time, probe trial (male Wistar rats [12]; [19]): 11.86 ± 1.44 s | Platform ring distance, probe trial (male Wistar rats [12]; [19]): 5.27±0.68 m | Platform ring time, probe trial (male Wistar rats [12]; [19]): 21.46 ± 3.05 s | Target region distance, probe trial (male Wistar rats [12]; [19]): 1.51±0.27 m | Target region time, probe trial (male Wistar rats [12]; [19]): 7.26 ± 1.36 s | Peripheral ring distance, probe trial (male Wistar rats [12]; [20]): 6.09±0.89 m | Peripheral ring time, probe trial (male Wistar rats [12]; [20]): 39.86 ± 1.67 s | Platform distance, probe trial (male Wistar rats [12]; [20]): 0.047±0.028 m | Platform number of entries, probe trial (male Wistar rats [12]; [20]): 0.38±0.18 | Platform quadrant (NE) distance, probe trial (male Wistar rats [12]; [20]): 2.18±0.51 m | Platform ring distance, probe trial (male Wistar rats [12]; [20]): 4.48±0.31 m | Platform ring time, probe trial (male Wistar rats [12]; [20]): 17.31 ± 1.38 s | Target region distance, probe trial (male Wistar rats [12]; [20]): 1.12±0.14 m | Target region time, probe trial (male Wistar rats [12]; zolpidem 1.0 mg/kg during acquisition, ±SEM, P<0.05 vs ZOL 0.5): 4.03 ± 0.52 s | Peripheral ring time, probe trial (male Wistar rats [12]; [21]): 42.80 ± 3.35 s | Platform distance, probe trial (male Wistar rats [12]; [21]): 0.053±0.023 m | Platform number of entries, probe trial (male Wistar rats [12]; [21]): 0.50±0.19 | Platform quadrant (NE) distance, probe trial (male Wistar rats [12]; [21]): 2.22±0.44 m | Platform ring distance, probe trial (male Wistar rats [12]; [21]): 4.00±0.65 m | Platform ring time, probe trial (male Wistar rats [12]; [21]): 14.50 ± 2.60 s | Target region distance, probe trial (male Wistar rats [12]; [21]): 0.99±0.22 m | Peripheral ring distance, probe trial (male Wistar rats [12]; [22]): 7.85±0.82 m | Target region time, probe trial (male Wistar rats [12]; [22]): 3.51 ± 0.76 s | % of control current, α5β3γ2 (α5β3γ2 GABAA receptors [14]): non-significant changes relative to control current | remaining activity at 0.1 µM (α1β3γ2 GABAA receptors [16]; [18]): 180 ± 14%

C#Cc1ccc2c(c1)C(c1ccccn1)=NCc1c(C(=O)OCC)ncn1-2 [SH-053-2'N, 8-ethynyl-6-(2’-pyrydine)-4H-2,5,10b-triaza-benzo[e]azulene-3-carboxylic acid ethyl ester]
Ki [17]: > 5 µM | % of control current, α5β3γ2 (α5β3γ2 GABAA receptors [1]): 130 ± 3% | effect on percentage of time on open arms (male Wistar rats [2]; 30 mg/kg i.p.): effective treatments | effect on total arm entries (male Wistar rats [2]; 10, 20 and 30 mg/kg i.p., Dunnett's test vs solvent): significant effect of the two higher doses | effect on distance travelled in the open arms (male Wistar rats [2]; 10, 20 and 30 mg/kg i.p., overall treatment effect): no significant effect of treatment | effect on percentage of open arm entries (male Wistar rats [2]; 10, 20 and 30 mg/kg i.p., post hoc test): neither of the single doses was significant on its own | effect on total distance travelled during 45 min (male Wistar rats [4]; 30 mg/kg i.p.): activity-depressing effect of all three treatments was significant | dose inducing a hypolocomotor effect in the SLA (male Wistar rats [4]): 30 mg/kg | % of control current, α2β3γ2 (α2β3γ2 GABAA receptors [6]): 165 ± 2% | latency to find the platform, single day (male Wistar rats [12]; 30 mg/kg i.p., vs control or SH-053-S-CH3-2'F 30 mg/kg): significantly longer search time on the fourth day | platform zone entries during the probe trial (male Wistar rats [12]): lack of incapacitating consequences | % of control current, α1β3γ2 (α1β3γ2 GABAA receptors [7]): 113 ± 2% | % of control current, α3β3γ2 (α3β3γ2 GABAA receptors [8]): 149 ± 3%
